In ChEMBL document CHEMBL5356958, “Discovery of a Highly Potent and Selective MYOF Inhibitor with Improved Water Solubility for the Treatment of Gastric Cancer” (J Med Chem, 2023):
Values after ≈ are worked out from the molar mass of the structure shown.

How the values were obtained:
MGC-803 = assay: Antiproliferative activity against human MGC-803 cells incubated for 48 hrs by SRB assay; assay type: functional, cell-based; settings: MGC-803, 48 h
MKN-45 [1] = assay: Antiproliferative activity against human MKN-45 cells incubated for 48 hrs by SRB assay; assay type: functional, cell-based; settings: MKN-45, 48 h
MKN-45 [2] = assay: Antitumor activity against human MKN-45 cells xenografted in BALB/c mouse assessed as tumor growth inhibition at 15 mg/kg/day, ip measured every 3 days for 21 days; assay type: functional; settings: MKN-45, 504 h, time 21 day, read-out: TGI
[3] = Aqueous solubility of compound in PBS at pH 2; assay type: physicochemical
[4] = Aqueous solubility of compound in PBS at pH 7.4; assay type: physicochemical
[5] = Aqueous solubility of compound in PBS at pH 9; assay type: physicochemical
Myoferlin = Myoferlin (Homo sapiens, UniProt Q9NZM1); assay: Binding affinity to human MYOF C2D by SPR method
MKN-45 [6] = assay: Antitumor activity against human MKN-45 cells xenografted in BALB/c mouse assessed as tumor growth inhibition at 30 mg/kg/day, ip measured every 3 days for 21 days; assay type: functional; settings: MKN-45, 504 h, time 21 day, read-out: TGI
hERG (KCNH2) = hERG (KCNH2) (Homo sapiens, UniProt Q12809); assay: Inhibition of human ERG at 3 uM relative to control; assay type: toxicity
Chain of hERG (KCNH2) (Q12809 whole entry): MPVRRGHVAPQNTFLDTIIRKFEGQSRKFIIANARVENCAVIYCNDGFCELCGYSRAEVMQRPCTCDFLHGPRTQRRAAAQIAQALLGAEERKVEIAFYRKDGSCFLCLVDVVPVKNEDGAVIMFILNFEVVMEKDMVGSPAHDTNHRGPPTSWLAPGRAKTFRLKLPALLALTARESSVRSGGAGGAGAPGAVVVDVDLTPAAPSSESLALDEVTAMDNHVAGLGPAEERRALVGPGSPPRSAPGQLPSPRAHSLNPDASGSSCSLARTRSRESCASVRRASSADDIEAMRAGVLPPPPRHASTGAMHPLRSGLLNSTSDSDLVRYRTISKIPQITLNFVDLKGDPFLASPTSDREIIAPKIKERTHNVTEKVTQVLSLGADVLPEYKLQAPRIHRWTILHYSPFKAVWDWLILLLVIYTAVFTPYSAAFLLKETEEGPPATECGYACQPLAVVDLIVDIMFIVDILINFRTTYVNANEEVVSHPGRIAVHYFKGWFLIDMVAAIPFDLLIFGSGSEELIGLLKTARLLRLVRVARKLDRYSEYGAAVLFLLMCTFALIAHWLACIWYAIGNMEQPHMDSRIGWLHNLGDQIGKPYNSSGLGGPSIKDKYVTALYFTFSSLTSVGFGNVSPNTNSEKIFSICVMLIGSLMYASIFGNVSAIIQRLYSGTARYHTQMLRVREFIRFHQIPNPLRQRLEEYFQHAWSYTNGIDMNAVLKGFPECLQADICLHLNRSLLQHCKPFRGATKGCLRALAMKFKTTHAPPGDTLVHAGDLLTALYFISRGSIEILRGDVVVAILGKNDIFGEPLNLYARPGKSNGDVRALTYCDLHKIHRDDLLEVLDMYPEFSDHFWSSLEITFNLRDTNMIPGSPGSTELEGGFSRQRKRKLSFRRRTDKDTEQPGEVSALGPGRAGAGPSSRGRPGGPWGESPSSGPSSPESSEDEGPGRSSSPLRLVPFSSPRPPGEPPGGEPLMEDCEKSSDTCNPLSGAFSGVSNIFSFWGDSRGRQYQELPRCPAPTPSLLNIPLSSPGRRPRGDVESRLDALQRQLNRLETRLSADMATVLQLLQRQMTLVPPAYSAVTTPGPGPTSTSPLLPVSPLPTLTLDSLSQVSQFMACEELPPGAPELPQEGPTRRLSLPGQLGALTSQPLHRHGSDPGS

Chain of Myoferlin (Q9NZM1 whole entry): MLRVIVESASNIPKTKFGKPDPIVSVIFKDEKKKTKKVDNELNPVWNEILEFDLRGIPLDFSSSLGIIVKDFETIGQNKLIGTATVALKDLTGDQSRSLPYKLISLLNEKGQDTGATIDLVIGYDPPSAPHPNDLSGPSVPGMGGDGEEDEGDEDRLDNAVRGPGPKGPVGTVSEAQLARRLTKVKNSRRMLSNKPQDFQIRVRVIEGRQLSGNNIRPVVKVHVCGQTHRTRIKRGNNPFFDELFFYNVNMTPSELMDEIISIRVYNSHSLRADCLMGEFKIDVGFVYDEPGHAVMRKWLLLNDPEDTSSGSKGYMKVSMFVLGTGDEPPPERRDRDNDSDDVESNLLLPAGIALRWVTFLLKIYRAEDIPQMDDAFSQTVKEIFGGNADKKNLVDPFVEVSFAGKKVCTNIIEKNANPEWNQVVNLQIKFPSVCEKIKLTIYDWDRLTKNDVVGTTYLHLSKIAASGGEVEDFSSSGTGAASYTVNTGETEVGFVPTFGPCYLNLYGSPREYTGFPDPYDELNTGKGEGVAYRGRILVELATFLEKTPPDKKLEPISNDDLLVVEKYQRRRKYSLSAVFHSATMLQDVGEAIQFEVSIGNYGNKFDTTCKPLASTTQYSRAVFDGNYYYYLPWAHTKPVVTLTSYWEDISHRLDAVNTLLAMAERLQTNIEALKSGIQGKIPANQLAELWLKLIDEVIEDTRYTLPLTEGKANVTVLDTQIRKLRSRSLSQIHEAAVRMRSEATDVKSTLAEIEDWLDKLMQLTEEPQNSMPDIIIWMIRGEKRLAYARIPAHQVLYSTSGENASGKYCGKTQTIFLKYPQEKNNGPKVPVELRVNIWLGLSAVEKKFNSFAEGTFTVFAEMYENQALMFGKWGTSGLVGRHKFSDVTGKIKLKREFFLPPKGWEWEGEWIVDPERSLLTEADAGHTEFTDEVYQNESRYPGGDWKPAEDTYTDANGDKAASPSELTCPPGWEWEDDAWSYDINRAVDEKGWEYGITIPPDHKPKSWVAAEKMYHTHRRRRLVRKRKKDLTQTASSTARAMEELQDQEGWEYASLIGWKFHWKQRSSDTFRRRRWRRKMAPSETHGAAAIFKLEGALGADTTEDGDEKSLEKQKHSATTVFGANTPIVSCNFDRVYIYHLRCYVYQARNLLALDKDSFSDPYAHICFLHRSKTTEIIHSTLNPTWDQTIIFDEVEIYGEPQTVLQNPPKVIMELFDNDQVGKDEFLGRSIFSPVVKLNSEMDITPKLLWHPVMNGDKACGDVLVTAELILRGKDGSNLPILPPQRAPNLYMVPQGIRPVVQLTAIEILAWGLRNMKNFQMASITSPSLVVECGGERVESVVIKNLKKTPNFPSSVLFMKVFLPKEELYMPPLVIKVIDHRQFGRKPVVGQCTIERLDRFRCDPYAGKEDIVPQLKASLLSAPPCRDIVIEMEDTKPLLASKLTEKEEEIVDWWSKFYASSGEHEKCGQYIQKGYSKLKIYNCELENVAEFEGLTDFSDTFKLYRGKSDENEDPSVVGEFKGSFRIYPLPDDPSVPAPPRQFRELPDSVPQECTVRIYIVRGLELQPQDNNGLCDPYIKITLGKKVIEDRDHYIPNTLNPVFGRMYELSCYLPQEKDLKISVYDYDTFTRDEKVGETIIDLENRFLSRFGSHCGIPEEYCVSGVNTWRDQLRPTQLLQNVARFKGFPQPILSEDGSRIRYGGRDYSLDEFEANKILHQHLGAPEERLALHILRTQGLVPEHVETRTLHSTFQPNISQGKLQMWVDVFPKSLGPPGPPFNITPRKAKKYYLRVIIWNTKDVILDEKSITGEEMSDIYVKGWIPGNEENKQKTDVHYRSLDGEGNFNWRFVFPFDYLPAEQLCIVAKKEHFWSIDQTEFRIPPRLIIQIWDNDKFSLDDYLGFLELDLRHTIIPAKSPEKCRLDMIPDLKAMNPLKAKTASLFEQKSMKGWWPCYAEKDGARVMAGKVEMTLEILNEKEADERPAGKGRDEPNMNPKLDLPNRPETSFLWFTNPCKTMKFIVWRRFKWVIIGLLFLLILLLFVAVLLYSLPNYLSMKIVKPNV

Row | Compound | IC50 (MGC-803) [nM] | IC50 (MKN-45 [1]) [nM] | other results
1 | CCc1nc(-c2ccccc2)n(-c2cccc(C(=O)NCCCCn3nccn3)c2)n1 | 6830 | 3120 | 
2 | O=c1[nH]cc(F)c(=O)[nH]1 [FLUOROURACIL] |  |  | inhibition in vivo at 15 mg/kg/day (MKN-45 [2]): 39.2%
3 | CCc1nc(-c2ccc(OC)cc2)n(-c2cccc(C(=O)NCCCCn3ncnn3)c2)n1 | 580 | 2860 | solubility [3]: 877 µM (≈ 392 µg/mL); solubility [4]: 194 µM (≈ 86.7 µg/mL); solubility [5]: 186 µM (≈ 83.1 µg/mL)
4 | CCc1nc(-c2ccc(Br)cc2)n(-c2cccc(C(=O)NCCCCn3nccn3)c2)n1 | 11100 | > 10000 | 
5 | CCc1nc(-c2ccc(OC)cc2)n(-c2cccc(C(=O)NCCCCn3cncn3)c2)n1 | > 10000 | > 10000 | 
6 | COc1ccccc1N1C(=O)CSC1c1cccc(C(=O)NCCCCc2ccccc2)c1 (stereo not drawn) |  |  | Kd (Myoferlin): 1330 nM
7 | CCc1nc(-c2ccc(OC)cc2)n(-c2cccc(C(=O)NCCCCn3cc(F)cn3)c2)n1 | 10800 | 5910 | 
8 | CCc1nc(-c2ccc(OC)cc2)n(-c2cccc(C(=O)NCCCCc3ccncc3)c2)n1 | > 10000 | > 10000 | 
9 | CCc1nc(-c2ccc(OC)cc2)n(-c2cccc(C(=O)NCCCCN3CCCCC3)c2)n1 | > 10000 | > 10000 | 
10 | CCc1nc(-c2ccc(OC)cc2)n(-c2cccc(C(=O)NCCCCn3cnnn3)c2)n1 | > 10000 | > 10000 | 
11 | CCc1nc(-c2ccc(OC)cc2)n(-c2cccc(C(=O)NCCCCc3ccccn3)c2)n1 | 3240 | > 10000 | 
12 | CCc1nc(-c2ccc(OC)cc2)n(-c2cccc(C(=O)NCCCCn3cc(Br)cn3)c2)n1 | 4380 | 4460 | 
13 | CCc1ccc(-c2nc(CC)nn2-c2cccc(C(=O)NCCCCn3nccn3)c2)cc1 | 1010 | 400 | 
14 | CCc1nc(-c2ccc(OC)cc2)n(-c2cccc(C(=O)NCCCCn3ccnc3)c2)n1 | > 10000 | > 10000 | 
15 | CCc1nc(-c2ccc(OC(F)(F)F)cc2)n(-c2cccc(C(=O)NCCCCn3nccn3)c2)n1 | 3870 | 5140 | 
16 | CCc1nc(-c2ccc(OC)cc2)n(-c2cccc(C(=O)NCCCCCn3nccn3)c2)n1 | 2120 | 6610 | 
17 | CCc1nc(-c2ccc(OC)cc2)n(-c2cccc(C(=O)NCCCCn3cc(Br)nn3)c2)n1 | > 10000 | > 10000 | 
18 | CCc1nc(-c2cccc(OC)c2)n(-c2cccc(C(=O)NCCCCn3nccn3)c2)n1 | 7290 | 9140 | 
19 | CCc1nc(-c2ccc(Cl)cc2)n(-c2cccc(C(=O)NCCCCn3nccn3)c2)n1 | 730 | 330 | 
20 | CCc1nc(-c2ncc(OC)cn2)n(-c2cccc(C(=O)NCCCCc3ccccc3)c2)n1 | 250 | 410 | solubility [3]: 1.7 µM (≈ 0.776 µg/mL); solubility [4]: < 1.6 µM; solubility [5]: < 1.6 µM; inhibition in vivo at 30 mg/kg/day (MKN-45 [6]): 52.2%

Row | Compound | IC50 (MGC-803) [nM] | IC50 (MKN-45 [1]) [nM] | other results
21 | CCc1nc(-c2ccc(OC)cc2)n(-c2cccc(C(=O)NCCCCn3ncc(Br)n3)c2)n1 | 270 | 260 | solubility [3]: 21.4 µM (≈ 11.2 µg/mL); solubility [4]: < 1.6 µM; solubility [5]: < 1.6 µM
22 | CCc1nc(-c2ccc(OC)cc2)n(-c2cccc(C(=O)NCCn3nccn3)c2)n1 | > 10000 | > 10000 | 
23 | CCc1nc(-c2ccc(OC)cn2)n(-c2cccc(C(=O)NCCCCn3nccn3)c2)n1 | 1700 | 250 | 
24 | CCc1nc(-c2ccccc2OC)n(-c2cccc(C(=O)NCCCCn3nccn3)c2)n1 | 8310 | 2580 | 
25 | CCc1nc(-c2ccc(O)cc2)n(-c2cccc(C(=O)NCCCCn3nccn3)c2)n1 | 940 | 490 | 
26 | CCc1nc(-c2ccc(OC)cc2)n(-c2cccc(C(=O)NCCCCn3cccn3)c2)n1 | 750 | 540 | solubility [3]: 1120 µM (≈ 499 µg/mL); solubility [4]: 393 µM (≈ 175 µg/mL); solubility [5]: 352 µM (≈ 156 µg/mL)
27 | CCc1nc(-c2ccc(OC)cc2)n(-c2cccc(C(=O)NCCCn3nccn3)c2)n1 | > 10000 | > 10000 | 
28 | CCc1nc(-c2ccc([N+](=O)[O-])cc2)n(-c2cccc(C(=O)NCCCCn3nccn3)c2)n1 | 5520 | 880 | 
29 | CCc1nc(-c2ccc(OC)cc2)n(-c2cccc(C(=O)NCCCCn3ccnn3)c2)n1 | > 10000 | > 10000 | 
30 | CCc1nc(-c2ccc(C)cc2)n(-c2cccc(C(=O)NCCCCn3nccn3)c2)n1 | 600 | 300 | 
31 | CCc1nc(-c2ncc(OC)cn2)n(-c2cccc(C(=O)NCCCCn3nccn3)c2)n1 | 560 | 500 | 
32 | COc1cc(N)c(Cl)cc1C(=O)NC1CCN(CCCOc2ccc(F)cc2)CC1OC (stereo not drawn) [CISAPRIDE] |  |  | inhibition at 3 µM (hERG (KCNH2)): 107%
33 | CCc1nc(-c2ccc(OC)cc2)n(-c2cccc(C(=O)NCCCCn3nc(Br)c(Br)n3)c2)n1 | 9800 | > 10000 | 
34 | CCCc1ccc(-c2nc(CC)nn2-c2cccc(C(=O)NCCCCn3nccn3)c2)cc1 | 4070 | 1970 | 
35 | CCc1nc(-c2ccc(OC)cc2)n(-c2cccc(C(=O)NCCCCc3cccs3)c2)n1 | 520 | 760 | 
36 | CCc1nc(-c2ccc(C(F)(F)F)cc2)n(-c2cccc(C(=O)NCCCCn3nccn3)c2)n1 | 3140 | 2700 | 
37 | CCc1nc(-c2ccc(F)cc2)n(-c2cccc(C(=O)NCCCCn3nccn3)c2)n1 | 1370 | 300 | 
38 | CCc1nc(-c2ccc(OC)cc2)n(-c2cccc(C(=O)NCCCCCCn3nccn3)c2)n1 | > 10000 | 9590 | 
39 | CCc1nc(-c2ccc(OC)nc2)n(-c2cccc(C(=O)NCCCCn3nccn3)c2)n1 | 7870 | 2750 | 
